From patent publication US7605168B2 (Plexxikon, Inc., priority 2004, dated 2009)

Legend:
[1] = biological target: T1, PDE4D5: full-length human PDE4D5 isozyme (Homo sapiens, UniProt Q08499); test: PDE4 IC50 determination by Scintillation Proximity Assay (SPA), full-length PDE4D5; assay type: biochemical; conditions: cell lysate, [3H]cAMP SPA
T1 construct: made in house; host or cells: baculovirus infected insect cells (pFastBacHT)
Method in brief: (§1)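 Unpurified enzyme from cell lysates (PDE4B2 2.5 μl, PDE4D5 0.083 μl of 50% glycerol stock/ml) hydrolysing [3H]cAMP in 50 mM Tris pH 7.5, 8.3 mM MgCl, 1.7 mM EGTA, 0.01% BSA, 30 min at 30 °C. Stopped with yttrium silicate SPA beads in 18 mM ZnSO4; bead-bound [3H]AMP counted. IC50 by non-linear regression.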

[2] = biological target: T2, PDE4B2: full-length human PDE4B2 isozyme (Homo sapiens, UniProt Q07343); test: PDE4 IC50 determination by Scintillation Proximity Assay (SPA), full-length PDE4B2; assay type: biochemical; conditions: cell lysate, [3H]cAMP SPA
T2 construct: made in house; host or cells: baculovirus infected insect cells (pFastBacHT)
T2 sequence (Q07343 with tags, fused parts or gaps isoform Q07343-2): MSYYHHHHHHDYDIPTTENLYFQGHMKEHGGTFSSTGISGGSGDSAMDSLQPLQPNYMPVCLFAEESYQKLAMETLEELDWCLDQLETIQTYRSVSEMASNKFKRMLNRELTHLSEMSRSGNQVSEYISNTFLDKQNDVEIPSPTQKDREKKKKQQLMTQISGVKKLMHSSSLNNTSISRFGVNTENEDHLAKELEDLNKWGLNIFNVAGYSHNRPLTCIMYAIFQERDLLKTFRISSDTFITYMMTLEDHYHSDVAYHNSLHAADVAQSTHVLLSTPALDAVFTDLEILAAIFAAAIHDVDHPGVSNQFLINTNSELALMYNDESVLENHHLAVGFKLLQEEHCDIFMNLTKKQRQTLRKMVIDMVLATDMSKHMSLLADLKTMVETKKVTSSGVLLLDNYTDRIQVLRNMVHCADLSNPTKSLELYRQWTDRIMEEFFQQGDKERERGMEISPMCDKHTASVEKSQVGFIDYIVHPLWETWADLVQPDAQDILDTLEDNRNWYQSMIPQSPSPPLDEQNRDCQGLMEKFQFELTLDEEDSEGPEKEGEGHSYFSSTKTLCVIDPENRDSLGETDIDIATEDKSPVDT
Method in brief: as §1

[3] = tested on: TNF-α release from whole blood cultures stimulated with LPS; test: IC50 by TNF alpha production upon stimulation of whole blood cultures with LPS; assay type: cell-based; conditions: human whole blood (buffy coat) culture, 100 ng/ml LPS, 4 hours; read-out: h TNFα IC50
Method in brief: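 Human buffy coat, diluted with 7 volumes of RPMI/2.5% heat-inactivated FBS, was preincubated with compound (8-point 1:3 series) for 1 h at 37 °C. It was then stimulated with 100 ng/ml LPS (final) for 4 h. Supernatant TNF-α was measured by sandwich ELISA at 450 nm, and IC50 was set between DMSO (0%) and PDE4-inhibitor (100%) controls.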

[4] = tested on: TNFα levels in serum of LPS-challenged rats; test: Rat inhibition studies: serum TNFα after iv LPS challenge; assay type: in vivo; conditions: LPS 0.1 mg/kg iv 2 h after dosing, percent decrease in serum TNFα versus vehicle, read-out: % inhibition r TNFα; for inhibition in vivo at 5 mg/kg: 5 mg/kg po
Procedure: All studies were done with male rats CD (SD) IGS BR (Crl) (Charles River, France), which were grouped in to 5 animal groups.
At the end of the acclimatization period, the non-fasted rats were weighed, individually identified on the tail with a permanent marker and administered by oral (po) or interperitoneal (ip) route with either vehicle, reference or test compound in a volume of 10 mL/kg adapted to the body weight. The animals were gathered in groups of 5 animals in a polystyrene labeled cage with sawdust covered floors. 2-hours after vehicle, reference or test substance administration, rats received an intravenous (iv) injection of 0.1 mg/kg LPS in a volume of 1 mL/kg of body weight. 2 h after LPS challenge (or as indicated in Tables 3B and 4B), blood samples were collected into tubes without anticoagulant by retro-orbital puncture under gas (isoflurane) anesthesia. Samples were allowed to clot at room temperature for 5 to 10 min then put on ice until there were prepared by centrifugation (6000×g for 3 min at 4° C.) and stored at −20° C. until use. TNFα levels were measured in serum samples in duplicate by ELISA technique according to the manufacturer's procedure (Rat TNFα kit Quantikine M (RTA00, R&D System, France)). Data are reported as percent decrease in observed TNFα levels versus TNFα levels observed for vehicle dosed animal groups.

[5] = biological target: T3, PDE4B: catalytic domain of human PDE4B from S152-S528 (Homo sapiens, UniProt Q07343); test: PDE4 IC50 determination by Scintillation Proximity Assay (SPA), PDE4B catalytic domain; assay type: biochemical; conditions: [3H]cAMP SPA, 30 min at 30° C.
T3 construct: The catalytic domain of human PDE4B from S152-S528; His6 (N, cleaved yes); thrombin cleavage site (N, cleaved yes); made in house; host or cells: E. coli BL21 (DE3) RIL
T3 sequence (Q07343 324-700): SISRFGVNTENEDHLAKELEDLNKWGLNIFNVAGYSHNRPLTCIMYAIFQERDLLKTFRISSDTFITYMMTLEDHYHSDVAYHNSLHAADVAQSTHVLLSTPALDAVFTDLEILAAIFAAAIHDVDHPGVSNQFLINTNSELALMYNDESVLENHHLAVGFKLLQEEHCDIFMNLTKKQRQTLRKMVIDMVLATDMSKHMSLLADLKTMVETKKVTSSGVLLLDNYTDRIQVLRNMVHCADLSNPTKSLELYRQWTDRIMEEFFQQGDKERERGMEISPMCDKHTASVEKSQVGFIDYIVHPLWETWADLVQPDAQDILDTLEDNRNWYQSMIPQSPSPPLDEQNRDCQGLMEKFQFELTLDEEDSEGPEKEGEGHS
Method in brief: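 Human PDE4B catalytic domain (80 ng/ml) hydrolysed [3H]cAMP in 50 mM Tris pH 7.5, 8.3 mM MgCl, 1.7 mM EGTA, 0.01% BSA for 30 min at 30 °C. Reaction was stopped with yttrium silicate SPA beads in 18 mM ZnSO4, and bound [3H]AMP was counted by scintillation. IC50 came from non-linear regression.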

T1 sequence (Q08499 with tags, fused parts or gaps isoform Q08499-6): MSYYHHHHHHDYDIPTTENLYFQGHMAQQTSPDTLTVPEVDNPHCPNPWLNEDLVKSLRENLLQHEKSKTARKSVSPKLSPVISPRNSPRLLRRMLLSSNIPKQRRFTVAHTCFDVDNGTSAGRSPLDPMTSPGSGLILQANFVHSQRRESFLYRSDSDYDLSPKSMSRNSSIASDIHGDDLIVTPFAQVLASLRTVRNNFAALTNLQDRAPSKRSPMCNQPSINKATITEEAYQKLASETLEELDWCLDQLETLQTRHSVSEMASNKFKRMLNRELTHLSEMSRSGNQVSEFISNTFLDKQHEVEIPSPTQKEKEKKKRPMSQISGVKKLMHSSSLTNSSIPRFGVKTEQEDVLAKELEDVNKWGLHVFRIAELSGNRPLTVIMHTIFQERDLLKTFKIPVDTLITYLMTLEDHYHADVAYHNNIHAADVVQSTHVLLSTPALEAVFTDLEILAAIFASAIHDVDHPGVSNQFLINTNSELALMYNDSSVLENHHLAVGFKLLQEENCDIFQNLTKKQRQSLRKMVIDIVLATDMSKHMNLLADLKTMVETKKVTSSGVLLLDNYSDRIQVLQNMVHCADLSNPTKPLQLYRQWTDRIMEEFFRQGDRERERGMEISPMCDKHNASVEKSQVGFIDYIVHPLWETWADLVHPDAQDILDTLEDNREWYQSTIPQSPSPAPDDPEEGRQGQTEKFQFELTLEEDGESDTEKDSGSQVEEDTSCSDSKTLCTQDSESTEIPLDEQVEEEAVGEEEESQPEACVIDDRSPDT

Row | Structure (SMILES) | IC50 [1] [µM] | IC50 [2] [µM] | IC50 [3] [µM] | inhibition in vivo at 50 mg/kg ([4]; 50 mg/kg po or ip) [%] | IC50 [5] [µM] | inhibition in vivo at 5 mg/kg [4] [%]
1 | COc1ccc(-c2cn(S(=O)(=O)c3cccc4cccnc34)c3ncccc23)cc1OC [Compound 7, 8-[3-(3,4-dimethoxy-phenyl)-pyrrolo[2,3-b]pyridine-1-sulfonyl]-quinoline] | < 10 | < 10 | ≤ 10 | ≥ 20 | < 10 | –
2 | CCOc1ccc2ccccc2c1C(=O)n1ccc2c(-c3ccc(OC)c(OC)c3)ccnc21 [Compound 48, [4-(3,4-Dimethoxy-phenyl)-pyrrolo[2,3-b]pyridin-1-yl]-(2-ethoxy-naphthalen-1-yl)-methanone] | < 10 | < 10 | ≤ 10 | – | < 10 | ≥ 20
3 | CCOc1ccccc1C(=O)n1ccc2cc(-c3ccc(OC)c(OC)c3)cnc21 [Compound 83, [5-(3,4-Dimethoxy-phenyl)-pyrrolo[2,3-b]pyridin-1-yl]-(2-ethoxy-phenyl)-methanone] | < 10 | < 10 | ≤ 10 | – | < 10 | ≥ 20
4 | COc1ccc(-c2cn(C(=O)c3ccccc3OC(C)=O)c3ncccc23)cc1OC [Compound 110, Acetic acid 2-[3-(3,4-dimethoxy-phenyl)-pyrrolo[2,3-b]pyridine-1-carbonyl]-phenyl ester] | < 10 | < 10 | ≤ 10 | – | < 10 | ≥ 20
5 | COc1ccc(-c2ccnc3c2ccn3S(=O)(=O)c2cccc3cccnc23)cc1OC [Compound 126, 8-[4-(3,4-Dimethoxy-phenyl)-pyrrolo[2,3-b]pyridine-1-sulfonyl]-quinoline] | < 10 | < 10 | ≤ 10 | – | < 10 | ≥ 20
